Earlier results as cited in patent publication US10568966B2, “Formulation for topical wound treatment” (AHMET KILIC, priority 2014, dated 2020).

Tests used:
[1] = CLP-Regulation (EC) No 1272/2008

Compound	LD50 Acute oral (Rat)	GHS Classification [1]
C=CCCCCCCCCC(=O)NCCC[N+](C)(C)CC(=O)[O-] [Rewoteric ® AM B U 185, Undecylenamidopropyl Betaine]	>2.000 mg/kg	
Cocamidopropyl Betaine [CRODATERIC ™ CAB 30-LQ-(RB)]		Eye Irrit. 2; H319
Lauramidopropyl betaine [CRODATERIC ™ CAB 30-LQ-(TH)]	>4.900 mg/kg	
